Reference: US6914045B2, “Glycopeptide antibiotics” (Wyeth Holdings Corporation, priority 2001, dated 2005)
≈ marks a conversion by molar mass, not a printed value.

Experiments:
Assay in all cases: in vitro antibacterial evaluation, MIC by broth dilution
Assay type in all cases: cell-based
Streptococcus sp. = conditions: broth dilution, 18 hours at 35° C.
Procedure, shortened: (§1)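 Inoculum 5×10^5 CFU/mL; concentrations 64 to 0.06 μg/mL; MIC defined as lowest inhibitory level. Conducted by broth dilution under NCCLS guidelines.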

Escherichia coli = conditions: 18 hours at 35° C.
Procedure, shortened: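 Broth dilution per NCCLS standard M7-A2 in Muller-Hinton II […], with an inoculum of 5×10^5 CFU/mL and antibiotic spanning 64-0.06 μg/mL. The MIC is the lowest concentration that inhibits growth of the organism.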

Staphylococcus sp. = conditions: broth dilution, 18 hours at 35° C.
Procedure, shortened: as §1

Enterococcus sp. = conditions: broth dilution, 18 hours at 35° C.
Procedure, shortened: as §1

Compound: CC(C)CC(=O)OC1C(OC2C(CO)OC(Oc3ccc(CC4NC(=O)C(C(C)c5cccs5)NC(=O)CNC(=O)C(CO)NC(=O)C(C(O)C5CNC(=N)N5C5OC(CO)C(O)C(O)C5O)NC(=O)C(C(O)C5CNC(=N)N5)NC4=O)cc3)C(O)C2O)OC(CO)C(O)C1O (stereo not drawn) [Example 265a, Cyclo[3-(2-thienyl)-2-aminobutanoyl-O-[4-O-[2-O-(3-methylbutanoyl)hexopyranosyl]hexopyranosyl]tyrosyl-3-(2-iminoimidazolidin-4-yl)seryl-3-(3-hexopyranosyl-2-iminoimidazolidin-4-yl)serylserylglycyl]]
- MIC Streptococcus agalactiae (GC 4564) (Streptococcus sp.; strain GC 4564): 4 µg/mL (≈ 2.89 µM)
- MIC Streptococcus pyogenes (ID-3187) (Streptococcus sp.; strain ID-3187): 4 µg/mL (≈ 2.89 µM)
- MIC Escherichia coli (ATCC 25922) (Escherichia coli; Escherichia coli (ATCC 25922)): >64 µg/mL
- MIC Escherichia coli (GC 4559) (Escherichia coli; Escherichia coli (GC 4559)): >64 µg/mL
- MIC Escherichia coli (GC 4560) (Escherichia coli; Escherichia coli (GC 4560)): 4 µg/mL (≈ 2.89 µM)
- MIC Coagulase Negative Staphylococcus (GC 4547) (Staphylococcus sp.): 8 µg/mL (≈ 5.77 µM)
- MIC Coagulase Negative Staphylococcus (GC 4548) (Staphylococcus sp.): 8 µg/mL (≈ 5.77 µM)
- MIC Coagulase Negative Staphylococcus (GC 4549) (Staphylococcus sp.): 4 µg/mL (≈ 2.89 µM)
- MIC Coagulase Negative Staphylococcus (GC 4551) (Staphylococcus sp.): 8 µg/mL (≈ 5.77 µM)
- MIC Staphylococcus aureus (ATCC 29213) (Staphylococcus sp.): 16 µg/mL (≈ 11.5 µM)
- MIC Staphylococcus aureus (GC 1131) (Staphylococcus sp.): 32 µg/mL (≈ 23.1 µM)
- MIC Staphylococcus aureus (GC 4541) (Staphylococcus sp.): 16 µg/mL (≈ 11.5 µM)
- MIC Staphylococcus aureus (GC 4542) (Staphylococcus sp.): 16 µg/mL (≈ 11.5 µM)
- MIC Staphylococcus aureus (GC 4544) (Staphylococcus sp.): 8 µg/mL (≈ 5.77 µM)
- MIC Staphylococcus aureus (GC 4545) (Staphylococcus sp.): 16 µg/mL (≈ 11.5 µM)
- MIC Staphylococcus aureus-SMITH (GC 4543) (Staphylococcus sp.): 8 µg/mL (≈ 5.77 µM)
- MIC Staphylococcus haemolyticus (GC 4546) (Staphylococcus sp.): 8 µg/mL (≈ 5.77 µM)
- MIC Staphylococcus aureus (ATCC 29213) (Staphylococcus sp.; strain ATCC 29213): 16 µg/mL (≈ 11.5 µM)
- MIC Staphylococcus aureus (GC 1131) (Staphylococcus sp.; strain GC 1131): 32 µg/mL (≈ 23.1 µM)
- MIC Staphylococcus aureus (GC 4541) (Staphylococcus sp.; strain GC 4541): 16 µg/mL (≈ 11.5 µM)
- MIC Staphylococcus aureus (GC 4542) (Staphylococcus sp.; strain GC 4542): 16 µg/mL (≈ 11.5 µM)
- MIC Staphylococcus aureus (GC 4544) (Staphylococcus sp.; strain GC 4544): 8 µg/mL (≈ 5.77 µM)
- MIC Staphylococcus aureus (GC 4545) (Staphylococcus sp.; strain GC 4545): 16 µg/mL (≈ 11.5 µM)
- MIC Staphylococcus haemolyticus (GC 4546) (Staphylococcus sp.; strain GC 4546): 8 µg/mL (≈ 5.77 µM)
- MIC Coagulase Negative Staphylococcus (GC 4547) (Staphylococcus sp.; strain GC 4547): 8 µg/mL (≈ 5.77 µM)
- MIC Coagulase Negative Staphylococcus (GC 4548) (Staphylococcus sp.; strain GC 4548): 8 µg/mL (≈ 5.77 µM)
- MIC Coagulase Negative Staphylococcus (GC 4549) (Staphylococcus sp.; strain GC 4549): 4 µg/mL (≈ 2.89 µM)
- MIC Coagulase Negative Staphylococcus (GC 4551) (Staphylococcus sp.; strain GC 4551): 8 µg/mL (≈ 5.77 µM)
- MIC Staphylococcus aureus-SMITH (GC 4543) (Staphylococcus sp.; strain SMITH GC 4543): 8 µg/mL (≈ 5.77 µM)
- MIC Enterococcus avium (GC 4558) (Enterococcus sp.; Enterococcus avium (GC 4558)): 64 µg/mL (≈ 46.2 µM)
- MIC Enterococcus faecalis (ATCC 29212) (Enterococcus sp.; Enterococcus faecalis (ATCC 29212)): 64 µg/mL (≈ 46.2 µM)
- MIC Enterococcus faecalis (GC 4553) (Enterococcus sp.; Enterococcus faecalis (GC 4553)): >64 µg/mL
- MIC Enterococcus faecalis (GC 4554) (Enterococcus sp.; Enterococcus faecalis (GC 4554)): >64 µg/mL
- MIC Enterococcus faecium (GC 2243) (Enterococcus sp.; Enterococcus faecium (GC 2243)): >64 µg/mL
- MIC Enterococcus faecium (GC 4556) (Enterococcus sp.; Enterococcus faecium (GC 4556)): 64 µg/mL (≈ 46.2 µM)
- MIC Enterococcus faecium (GC 4557) (Enterococcus sp.; Enterococcus faecium (GC 4557)): 8 µg/mL (≈ 5.77 µM)
- MIC Enterococcus faecalis (ATCC 29212) (Enterococcus sp.; strain ATCC 29212): 64 µg/mL (≈ 46.2 µM)
- MIC Enterococcus faecalis (GC 2242) (Enterococcus sp.; strain GC 2242): 64 µg/mL (≈ 46.2 µM)
- MIC Enterococcus faecium (GC 2243) (Enterococcus sp.; strain GC 2243): >64 µg/mL
- MIC Enterococcus faecalis (GC 4552) (Enterococcus sp.; strain GC 4552): >64 µg/mL
- MIC Enterococcus faecalis (GC 4553) (Enterococcus sp.; strain GC 4553): >64 µg/mL
- MIC Enterococcus faecalis (GC 4554) (Enterococcus sp.; strain GC 4554): >64 µg/mL
- MIC Enterococcus faecium (GC 4556) (Enterococcus sp.; strain GC 4556): 64 µg/mL (≈ 46.2 µM)
- MIC Enterococcus faecium (GC 4557) (Enterococcus sp.; strain GC 4557): 8 µg/mL (≈ 5.77 µM)
- MIC Enterococcus avium (GC 4558) (Enterococcus sp.; strain GC 4558): 64 µg/mL (≈ 46.2 µM)
